Activity calls are given as the source filed them. The rule behind the calls is not given here.
What was measured:
Assay type in all cases: functional, cell-based
[1] = test system: HEK293-A; test: Cytotoxicity against HEK293-A cells expressing GFP-tagged LC3 assessed as cell viability at 10 uM incubated for 24 hrs by MTT assay; conditions: Homo sapiens
[2] = test system: HEK293-A; test: Regulation of autophagy in HEK293-A cells expressing GFP-tagged LC3 assessed as increase in green fluorescence at 10 uM incubated for 24 hrs by confocal microscopy; conditions: Homo sapiens
[3] = test system: IMR-90; test: Induction of autophagy in human IMR-90 cells expressing GFP-mCherry-tagged LC3 assessed as increase in red puncta at 10 uM incubated for 24 hrs by DAPI staining based confocal microscopy
[4] = test system: IMR-90; test: Induction of autophagic flux in human IMR-90 cells expressing GFP-mCherry-tagged LC3 assessed as accumulation of LC3B-II incubated for 6 hrs in presence of chloroquine by Western blot analysis; conditions: dose 1-20 µM

Compound | Activity [1] | Activity [2] | Activity [3] | Activity [4]
C=C1C(=O)O[C@@H](C(=O)O)[C@@H]1CCCCCCCCCCC | Active | – | – | –
CCCCCCCCCCCC[C@H](O)[C@]1(O)[C@@H](COC)C(=O)O[C@H]1C(=O)O | inactive | – | – | –
CCCCCCCC[C@@H](C)[C@@H]1OC(=O)[C@H](CO)NC(=O)[C@H](C(=O)c2c[nH]c3ccccc23)NC(=O)[C@@H](CCC(=O)O)NC(=O)[C@H]1C | inactive | Active | – | –
CCCCCCCCCC[C@H](O)C1=C(COCC)C(=O)OC1 | inactive | – | – | –
CCCCCCCC[C@@H](C)[C@@H]1OC(=O)[C@H](CO)NC(=O)[C@H](C(=O)c2c[nH]c3ccccc23)NC(=O)[C@@H](CCC(=O)OCC)NC(=O)[C@H]1C | inactive | Active | – | –
CCCCCCCC[C@@H](C)[C@@H]1OC(=O)[C@H](CO)NC(=O)[C@H](Cc2c[nH]c3ccccc23)NC(=O)[C@@H](CCC(=O)O)NC(=O)[C@H]1C | inactive | Active | Active | –
CCCCCCCC[C@@H]1COC(=O)[C@H](CO)NC(=O)[C@H](C(=O)c2c[nH]c3ccccc23)NC(=O)[C@@H](CCC(=O)O)NC(=O)[C@@H](C)[C@H]1O | inactive | Active | – | –
CCCCCCCC[C@@H](COC(C)=O)[C@@H]1OC(=O)[C@H](CO)NC(=O)[C@H](C(=O)c2c[nH]c3ccccc23)NC(=O)[C@@H](CCC(=O)O)NC(=O)[C@H]1C | inactive | Active | Active | Dose-dependent-effect
O=C(c1c[nH]c2ccccc12)C(O)CO (stereo not drawn) | inactive | – | – | –
CCCCCCCC[C@@H](COC(C)=O)[C@@H]1OC(=O)[C@H](CO)NC(=O)[C@H](C(=O)c2c[nH]c3ccccc23)NC(=O)[C@@H](CCC(=O)OCC)NC(=O)[C@H]1C | inactive | Active | – | –
CCCCCCCC[C@@H](C)[C@@H]1OC(=O)[C@H](CO)NC(=O)/C(=C/c2c[nH]c3ccccc23)NC(=O)[C@@H](CCC(=O)O)NC(=O)[C@H]1C | inactive | Active | Active | –
C=C1C(=O)O[C@H](CCCCCCCCCC)[C@H]1[C@@H](O)C(=O)OCC | inactive | – | – | –
